Measurements reported in ChEMBL document CHEMBL4627254, “Design and synthesis of (E)-1,2-diphenylethene-based EZH2 inhibitors” (Bioorg Med Chem Lett, 2020).

Tested on: not listed separately
Experiment: Antiproliferative activity against over expressing […] human WSU-DLCL2 cells
Assay type: functional
Details: WSUDLCL2

Row | Compound | IC50
1 | CCN(c1cc(/C=C/c2ccc3c(c2)NC(=O)CO3)cc(C(=O)NCc2c(C)c3c([nH]c2=O)CCCC3)c1C)C1CCOCC1 | > 30 µM
2 | CCN(c1cc(-c2ccc(CN3CCOCC3)cc2)cc(C(=O)NCc2c(C)cc(C)[nH]c2=O)c1C)C1CCOCC1 [TAZEMETOSTAT] | 17.8 µM
3 | CCN(c1cc(/C=C/c2ccc(CN3C[C@@H](C)O[C@@H](C)C3)c(F)c2)cc(C(=O)NCc2c3c(c(C)[nH]c2=O)CCCC3)c1C)C1CCOCC1 | 27.7 µM
4 | CCN(c1cc(/C=C/c2ccc(/C=C/C(=O)OC)cc2)cc(C(=O)NCc2c3c(c(C)[nH]c2=O)CCCC3)c1C)C1CCOCC1 | 21.2 µM
5 | CCN(c1cc(/C=C/c2ccc(CN3CCC4(CC3)OCCO4)cc2)cc(C(=O)NCc2c(C)c3c([nH]c2=O)CCCC3)c1C)C1CCOCC1 | 17.5 µM
6 | CCN(c1cc(/C=C/c2ccc(CN3CCOCC3)cc2)cc(C(=O)NCc2c3c(c(C)[nH]c2=O)CCCC3)c1C)C1CCOCC1 | > 30 µM
7 | CCN(c1cc(/C=C/c2ccc(CN3C[C@@H](C)O[C@@H](C)C3)c(F)c2)cc(C(=O)NCc2c(C)c3c([nH]c2=O)CCCC3)c1C)C1CCOCC1 | > 30 µM
8 | CCN(c1cc(/C=C/c2ccc(CN3C[C@H]4C[C@@H]3CO4)c(F)c2)cc(C(=O)NCc2c(C)c3c([nH]c2=O)CCCC3)c1C)C1CCOCC1 | 6.18 µM
9 | CCN(c1cc(/C=C/c2ccc(CN3C[C@@H]4C[C@H]3CO4)c(F)c2)cc(C(=O)NCc2c(C)c3c([nH]c2=O)CCCC3)c1C)C1CCOCC1 | 4.58 µM
10 | CCN(c1cc(/C=C/c2ccc(CN3CCN(C)CC3)cc2)cc(C(=O)NCc2c(C)c3c([nH]c2=O)CCCC3)c1C)C1CCOCC1 | 3.11 µM
11 | CCN(c1cc(/C=C/c2cccc(CN(C)C)c2)cc(C(=O)NCc2c(C)c3c([nH]c2=O)CCCC3)c1C)C1CCOCC1 | 20.9 µM
12 | CCN(c1cc(/C=C/c2ccc(S(=O)(=O)N3CCOCC3)cc2)cc(C(=O)NCc2c3c(c(C)[nH]c2=O)CCCC3)c1C)C1CCOCC1 | > 30 µM
13 | CCN(c1cc(/C=C/c2cccc(CN3CCOCC3)c2)cc(C(=O)NCc2c(C)c3c([nH]c2=O)CCCC3)c1C)C1CCOCC1 | > 30 µM
14 | CCN(c1cc(/C=C/c2ccc3c(c2)NC(=O)CO3)cc(C(=O)NCc2c3c(c(C)[nH]c2=O)CCCC3)c1C)C1CCOCC1 | > 30 µM

Molecular target: Histone-lysine N-methyltransferase EZH2 (Homo sapiens, UniProt Q15910)
Experiment: Inhibition of wild type EZH2 (unknown origin) by AlphaLISA assay
Details: not given

Sequence of Histone-lysine N-methyltransferase EZH2 (Q15910 whole entry): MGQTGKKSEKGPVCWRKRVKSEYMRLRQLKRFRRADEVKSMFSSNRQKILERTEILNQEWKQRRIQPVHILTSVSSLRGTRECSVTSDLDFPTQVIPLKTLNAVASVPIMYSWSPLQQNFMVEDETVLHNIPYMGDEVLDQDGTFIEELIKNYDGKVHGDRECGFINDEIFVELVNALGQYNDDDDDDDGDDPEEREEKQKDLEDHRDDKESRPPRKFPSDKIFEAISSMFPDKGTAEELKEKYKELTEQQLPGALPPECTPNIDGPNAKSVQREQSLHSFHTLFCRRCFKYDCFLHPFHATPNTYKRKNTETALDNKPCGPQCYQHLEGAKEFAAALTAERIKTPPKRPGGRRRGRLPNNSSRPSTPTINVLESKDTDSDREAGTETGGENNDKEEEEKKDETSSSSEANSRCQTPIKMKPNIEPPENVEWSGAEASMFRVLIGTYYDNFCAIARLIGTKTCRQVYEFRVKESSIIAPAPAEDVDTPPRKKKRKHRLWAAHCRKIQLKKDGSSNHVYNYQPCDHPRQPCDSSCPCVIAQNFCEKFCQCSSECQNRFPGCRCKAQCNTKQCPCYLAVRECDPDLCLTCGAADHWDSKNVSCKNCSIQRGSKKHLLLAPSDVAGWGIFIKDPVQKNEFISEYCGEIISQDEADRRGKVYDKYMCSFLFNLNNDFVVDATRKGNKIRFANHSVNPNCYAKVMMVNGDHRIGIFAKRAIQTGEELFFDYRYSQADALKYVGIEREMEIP

Row | IC50 | Compound
15 | 0.189 µM | CCN(c1cc(/C=C/c2ccc(CN3CCC4(CC3)OCCO4)cc2)cc(C(=O)NCc2c(C)c3c([nH]c2=O)CCCC3)c1C)C1CCOCC1

Tested on: MV4-11
Experiment: Antiproliferative activity against human MV4-11 cells
Assay type: functional, cell-based
Details: not given

Row | Compound | IC50
16 | CCN(c1cc(-c2ccc(CN3CCOCC3)cc2)cc(C(=O)NCc2c(C)cc(C)[nH]c2=O)c1C)C1CCOCC1 [TAZEMETOSTAT] | 22.4 µM
17 | CCN(c1cc(/C=C/c2ccc(CN3C[C@@H](C)O[C@@H](C)C3)c(F)c2)cc(C(=O)NCc2c3c(c(C)[nH]c2=O)CCCC3)c1C)C1CCOCC1 | 4.36 µM
18 | CCN(c1cc(/C=C/c2ccc(CN3CCOCC3)cc2)cc(C(=O)NCc2c3c(c(C)[nH]c2=O)CCCC3)c1C)C1CCOCC1 | 6.41 µM
19 | CCN(c1cc(/C=C/c2ccc(CN3C[C@H]4C[C@@H]3CO4)c(F)c2)cc(C(=O)NCc2c(C)c3c([nH]c2=O)CCCC3)c1C)C1CCOCC1 | > 30 µM
20 | CCN(c1cc(/C=C/c2cccc(CN(C)C)c2)cc(C(=O)NCc2c(C)c3c([nH]c2=O)CCCC3)c1C)C1CCOCC1 | 3.98 µM

Second part, the molecule after the results:

Row | IC50 | Compound
21 | 24.3 µM | CCN(c1cc(/C=C/c2ccc(CN3C[C@@H]4C[C@H]3CO4)c(F)c2)cc(C(=O)NCc2c(C)c3c([nH]c2=O)CCCC3)c1C)C1CCOCC1
22 | 22.6 µM | CCN(c1cc(/C=C/c2ccc(CN3CCN(C)CC3)cc2)cc(C(=O)NCc2c(C)c3c([nH]c2=O)CCCC3)c1C)C1CCOCC1
23 | 12 µM | CCN(c1cc(/C=C/c2ccc(CN3C[C@@H](C)O[C@@H](C)C3)c(F)c2)cc(C(=O)NCc2c(C)c3c([nH]c2=O)CCCC3)c1C)C1CCOCC1
24 | 9.23 µM | CCN(c1cc(/C=C/c2cccc(CN3CCOCC3)c2)cc(C(=O)NCc2c(C)c3c([nH]c2=O)CCCC3)c1C)C1CCOCC1
25 | 5.69 µM | CCN(c1cc(/C=C/c2ccc3c(c2)NC(=O)CO3)cc(C(=O)NCc2c(C)c3c([nH]c2=O)CCCC3)c1C)C1CCOCC1
26 | 4.56 µM | CCN(c1cc(/C=C/c2ccc3c(c2)NC(=O)CO3)cc(C(=O)NCc2c3c(c(C)[nH]c2=O)CCCC3)c1C)C1CCOCC1
27 | 3.87 µM | CCN(c1cc(/C=C/c2ccc(CN3CCC4(CC3)OCCO4)cc2)cc(C(=O)NCc2c(C)c3c([nH]c2=O)CCCC3)c1C)C1CCOCC1

Tested on: SUD4
Experiment: Antiproliferative activity against over expressing […] human SUDHL4 cells
Assay type: functional, cell-based
Details: SU-DHL-4

Row | Compound | IC50
28 | CCN(c1cc(/C=C/c2ccc3c(c2)NC(=O)CO3)cc(C(=O)NCc2c(C)c3c([nH]c2=O)CCCC3)c1C)C1CCOCC1 | 25.7 µM
29 | CCN(c1cc(-c2ccc(CN3CCOCC3)cc2)cc(C(=O)NCc2c(C)cc(C)[nH]c2=O)c1C)C1CCOCC1 [TAZEMETOSTAT] | 14.3 µM
30 | CCN(c1cc(/C=C/c2ccc(CN3C[C@@H](C)O[C@@H](C)C3)c(F)c2)cc(C(=O)NCc2c3c(c(C)[nH]c2=O)CCCC3)c1C)C1CCOCC1 | > 30 µM
31 | CCN(c1cc(/C=C/c2ccc(CN3CCC4(CC3)OCCO4)cc2)cc(C(=O)NCc2c(C)c3c([nH]c2=O)CCCC3)c1C)C1CCOCC1 | 21.6 µM
32 | CCN(c1cc(/C=C/c2ccc(CN3CCOCC3)cc2)cc(C(=O)NCc2c3c(c(C)[nH]c2=O)CCCC3)c1C)C1CCOCC1 | > 30 µM
33 | CCN(c1cc(/C=C/c2ccc(CN3C[C@@H](C)O[C@@H](C)C3)c(F)c2)cc(C(=O)NCc2c(C)c3c([nH]c2=O)CCCC3)c1C)C1CCOCC1 | 20.4 µM
34 | CCN(c1cc(/C=C/c2ccc(CN3C[C@H]4C[C@@H]3CO4)c(F)c2)cc(C(=O)NCc2c(C)c3c([nH]c2=O)CCCC3)c1C)C1CCOCC1 | > 30 µM
35 | CCN(c1cc(/C=C/c2ccc(CN3C[C@@H]4C[C@H]3CO4)c(F)c2)cc(C(=O)NCc2c(C)c3c([nH]c2=O)CCCC3)c1C)C1CCOCC1 | 10.5 µM
36 | CCN(c1cc(/C=C/c2ccc(CN3CCN(C)CC3)cc2)cc(C(=O)NCc2c(C)c3c([nH]c2=O)CCCC3)c1C)C1CCOCC1 | 4.31 µM
37 | CCN(c1cc(/C=C/c2cccc(CN(C)C)c2)cc(C(=O)NCc2c(C)c3c([nH]c2=O)CCCC3)c1C)C1CCOCC1 | 15.7 µM
38 | CCN(c1cc(/C=C/c2cccc(CN3CCOCC3)c2)cc(C(=O)NCc2c(C)c3c([nH]c2=O)CCCC3)c1C)C1CCOCC1 | > 30 µM
39 | CCN(c1cc(/C=C/c2ccc3c(c2)NC(=O)CO3)cc(C(=O)NCc2c3c(c(C)[nH]c2=O)CCCC3)c1C)C1CCOCC1 | 30 µM
